Test results published in patent US20240174684A1, “INHIBITORS OF cGAS ACTIVITY AS THERAPEUTIC AGENTS” (BELLBROOK LABS, LLC, priority 2021, published 2024).
Read-outs that look alike come from different tables or passages of the source.

How the values were obtained:
MDR1 (P-glycoprotein) = experiment: MDCK-MDR1 permeability A→B; type: in vitro ADME, Canine; details: dog; MDCK cells expressing human MDR1, A→B; read-out: MDCK-MDR Permeability A→B
Experimental: (§1) ADME studies: Compound A and the compounds of the disclosure were tested for aqueous solubility (KSOL), metabolic stability (human and mouse […]) and permeability (Caco-2 and/or MDR1-MDCK cells) to provide an initial indication of oral bioavailability.
(§2) The favorable physicochemical properties are reflected in promising results in in vitro ADME tests. […] Metabolic stability, which was routinely measured with mouse and human hepatocytes, is outstanding, with t, greater than 2 hours for all of the compounds of the disclosure in which it has been measured. Cell permeability was measured using MDCK cells expressing human MDR1 (P-glycoprotein) to assess passive permeability as well as active transport out of the cell. […] Numerous compounds in Table 1 meet these permeability criteria, which is consistent with their design for TPSA <140 Å^2 and increased lipophilicity.
(§3) The MDCK-MDR1 permeability A ->B is shown in Table 2 below, where A represents 5-10 cm/s×10^−6; B represents 1-5 cm/s×10^−6; and C represents <1 cm/ss×10^−6. The metabolic stability half time, in both mouse and human hepatocytes, is also shown in Table 2 below, where A′ represents 100-200 minutes; B′ represents 200-300 minutes; and C′ represents >300 minutes.

cGAS = cGAS (Homo sapiens, UniProt Q8N884); experiment: Transcreener cGAS enzymatic assay (FP); type: biochemical
Sequence of cGAS (Q8N884 whole entry): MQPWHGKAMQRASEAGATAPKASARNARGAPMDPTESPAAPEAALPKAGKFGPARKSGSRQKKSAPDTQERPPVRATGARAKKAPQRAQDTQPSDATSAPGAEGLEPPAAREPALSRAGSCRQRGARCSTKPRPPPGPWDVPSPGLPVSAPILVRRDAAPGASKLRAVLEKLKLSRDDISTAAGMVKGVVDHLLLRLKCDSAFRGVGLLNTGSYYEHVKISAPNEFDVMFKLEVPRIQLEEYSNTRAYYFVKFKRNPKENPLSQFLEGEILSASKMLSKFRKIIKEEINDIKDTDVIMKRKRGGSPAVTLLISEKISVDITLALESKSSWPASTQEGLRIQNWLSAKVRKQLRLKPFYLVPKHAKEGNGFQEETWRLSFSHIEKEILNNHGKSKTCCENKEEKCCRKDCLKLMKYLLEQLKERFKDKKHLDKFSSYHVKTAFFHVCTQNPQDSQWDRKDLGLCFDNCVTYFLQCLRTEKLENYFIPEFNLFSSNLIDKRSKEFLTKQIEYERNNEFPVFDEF
Experimental: Structural, biochemical and biophysical analysis and selectivity profiling: Potency and MOA studies, including Mn^2+ sensitivity, were performed using the Transcreener cGAS enzymatic assay, which is manufactured at BellBrook Labs (Fitchburg, Wisconsin, USA). This homogenous cGAS enzymatic assay was developed with fluorescence polarization (FP) and time-resolved Forster resonance energy transfer (TR-FRET) readouts, as described in International Patent Publication WO 2020/142729, incorporated by reference herein in its entirety. Plates are read on a PHERAstar FSX multimode reader (BMG). The compounds of the disclosure were tested for inhibition of cGAS ([…]) using this cGAS enzymatic assay under standard conditions (100 μM ATP and GTP, 62.5 nM bp ISD, 60 minute reactions), high ATP and GTP (1 mM) to mimic physiological conditions, in the presence of 200 μM MnCl2, and with mouse cGAS under standard conditions.
The IC50 values for FP under standard and under physiological conditions were determined for several exemplary compounds of the invention. The relative activities for FP Standard IC50 are shown in Table 2 below, where A represents <50 nM; B represents 50-100 nM; C represents 100-200 nM; D represents 200 nM-1μM; and E represents 1-10 μM. For the relative activities for FP Physiological IC50, A′ represents <200 nM; B′ represents 200-500 nM; C′ represents 500 nM-1μM; D′ represents 1-5 μM; and E′ represents >5 μM.

[1] = system: IFNβ production in THP-1 cells; experiment: IFNβ ELISA in THP-1 cells; type: cell-based, human; details: Homo sapiens; THP-1 cells
Description: (§4) Cellular assays: The human monocyte cell line THP-1 and human primary PBMCs were used to evaluate the cellular activity of compounds with good biochemical potency. These cells produce a robust cGAS/STING-dependent type I IFN response when stimulated with dsDNA and other pathogen-associated molecular patterns, which was detected using a standard ELISA for IFNβ (R&D Systems). The TBK1 inhibitor, BX-795, which acts downstream of cGAS/STING, was used as a probe.
CETSA was also used to confirm that the compounds are binding to cGAS in cells; THP-1 cells are used for this analysis. Compounds were tested in dose response mode by incubating with cells for 1.5 hours at 37° C., followed by pelleting and re-suspending in PBS, heating to 51.5° C. for 3 min and cooling to room temp. Cells were then lysed, debris, including denatured cGAS, was pelleted and the supernatant was analyzed for soluble cGAS by Western Blot using anti-cGAS primary Ab (Cell Signaling). Band intensity was analyzed using Image J software. Stimulation with cGAMP directly activates STING, circumventing cGAS; this was used to determine if compounds had effects on downstream components of cGAS/STING signaling. The IFN-6 ELISA was used as the primary measure of cellular potency and selectivity (Table 3) and used the reporter gene assays for assessing off-target activity with other pattern recognition receptors.
(§5) The ICso values for IFNB ELISA stimulated with THP-1, PBMC, DNA, and cGAMP were determined for several exemplary compounds of the invention, and are provided in Table 3 where A represents <1 μM; B represents 1-2.5 μM; C represents 2.5-10 μM; D represents 10-20 μM; and E represents >20 μM.

[2] = system: IFN-β production in PBMCs; experiment: IFNβ ELISA in human primary PBMCs; type: cell-based; details: PBMC
Description: as §4, §5
The reporter gene assays were used to assess off-target activity with IRF30Luc (RIG-1) or NFKB (TLR4); CellTiter Glo (ATP levels) and Presto Blue (reducing equivalents) were used to assess cytotoxicity; all assays were performed in dose response mode. […] The inventors recently began using human PBMCs to assess cellular potency in a more physiologically relevant context.

[3] = system: MDCK cells expressing human MDR1 (P-glycoprotein); experiment: MDCK-MDR1 permeability A→B; type: in vitro ADME, Canine
Experimental: as §1, §2, §3

[4] = high ATP and GTP (1 mM) to mimic physiological conditions, read-out: IC50 FP Physiological
[5] = standard conditions: 100 μM ATP and GTP, 62.5 nM bp ISD, 60 minute reactions, read-out: IC50 FP Standard

Compound	Papp A→B (MDR1 (P-glycoprotein)) [×10⁻⁶ cm/s]	IC50 (cGAS; [4]) [nM]	IC50 (cGAS; [5]) [nM]	IC50 [1] [nM]	MDCK-MDR Permeability A→B [3]	IC50 [2] [nM]
Cc1nc(N2C[C@@H](CC(=O)Nc3ccc(N4CCCCC4)cc3)C[C@H]2C(=O)O)c2oc3ccccc3c2n1 [Compound 7, (2S,4R)-1-(2-methylbenzofuro[3,2-d]pyrimidin-4-yl)-4-(2-oxo-2-((4-(piperidin-1-yl)phenyl)amino)ethyl)pyrrolidine-2-carboxylic acid]	1 to 5	1000 to 5000	200 to 1000	10000 to 20000		10000 to 20000
Cc1nc(N2C[C@@H](CC(=O)Nc3ccc(OC(F)(F)F)cc3)C[C@H]2C(=O)O)c2oc3ccccc3c2n1 [Compound 12, (2S,4R)-1-(2-methylbenzofuro[3,2-d]pyrimidin-4-yl)-4-(2-oxo-2-((4-(trifluoromethoxy)phenyl)amino)ethyl)pyrrolidine-2-carboxylic acid]	5 to 10	> 5000	200 to 1000	1000 to 2500		2500 to 10000
Cc1nc(N2C[C@@H](CC(=O)Nc3cccc(Cl)c3)C[C@H]2C(=O)O)c2oc3ccccc3c2n1 [Compound 22, (2S,4R)-4-(2-((3-chlorophenyl)amino)-2-oxoethyl)-1-(2-methylbenzofuro[3,2-d]pyrimidin-4-yl)pyrrolidine-2-carboxylic acid]	1 to 5	1000 to 5000	100 to 200	2500 to 10000		10000 to 20000
Cc1nc(N2C[C@@H](CC(=O)Nc3ccc(C(F)(F)F)cc3)C[C@H]2C(=O)O)c2oc3ccccc3c2n1 [Compound 24, (28.4R)-1-(2-methylbenzofuro[3,2-d]pyrimidin-4-yl)-4-(2-oxo-2-((4-(trifluoromethyl)phenyl)amino)ethyl)pyrrolidine-2-carboxylic acid]	1 to 5	1000 to 5000	200 to 1000	10000 to 20000		10000 to 20000
Cc1nc(N2C[C@@H](CC(=O)Nc3ccc4cnccc4c3)C[C@H]2C(=O)O)c2oc3ccccc3c2n1 [Compound 33, (2S,4R)-4-(2-(isoquinolin-6-ylamino)-2-oxoethyl)-1-(2-methylbenzofuro[3,2-d]pyrimidin-4-yl)pyrrolidine-2-carboxylic acid]		1000 to 5000	100 to 200	2500 to 10000	C (C represents <1 cm/ss×10^−6)	10000 to 20000
Cc1nc(N2C[C@@H](CC(=O)Nc3ccc(-c4cccnc4N)cc3)C[C@H]2C(=O)O)c2oc3ccccc3c2n1 [Compound 43, (28.4R)-4-(2-((4-(2-aminopyridin-3-yl)phenyl)amino)-2-oxoethyl)-1-(2-methylbenzofuro[3,2-d]pyrimidin-4-yl)pyrrolidine-2-carboxylic acid]		500 to 1000	100 to 200	> 20000		> 20000
Cc1nc(N2C[C@@H](CC(=O)Nc3ccc(-c4ccccc4)cn3)C[C@H]2C(=O)O)c2oc3ccccc3c2n1 [Compound 67, (2S,4R)-1-(2-methylbenzofuro[3,2-d]pyrimidin-4-yl)-4-(2-oxo-2-((5-phenylpyridin-2-yl)amino)ethyl)pyrrolidine-2-carboxylic acid]	5 to 10	500 to 1000	50 to 100	2500 to 10000		

Further lines, with some results ahead:

Papp A→B (MDR1 (P-glycoprotein)) [×10⁻⁶ cm/s]	IC50 (cGAS; [4]) [nM]	IC50 (cGAS; [5]) [nM]	IC50 [1] [nM]	MDCK-MDR Permeability A→B [3]	Compound	IC50 [2] [nM]
1 to 5	200 to 500	< 50	2500 to 10000		Cc1nc(N2C[C@@H](CC(=O)Nc3ccc4ccncc4c3)C[C@H]2C(=O)O)c2oc3ccccc3c2n1 [Compound 34, (28.4R)-4-(2-(isoquinolin-7-ylamino)-2-oxoethyl)-1-(2-methylbenzofuro[3,2-d]pyrimidin-4-yl)pyrrolidine-2-carboxylic acid]	2500 to 10000
1 to 5	500 to 1000	< 50	2500 to 10000		Cc1nc(N2C[C@@H](CC(=O)Nc3ccc4cccnc4c3)C[C@H]2C(=O)O)c2oc3ccccc3c2n1 [Compound 35, (28,4R)-1-(2-methylbenzofuro[3,2-d]pyrimidin-4-yl)-4-(2-oxo-2-(quinolin-7-ylamino)ethyl)pyrrolidine-2-carboxylic acid]	2500 to 10000
	500 to 1000	100 to 200	2500 to 10000		Cc1nc(N2C[C@@H](CC(=O)Nc3ccc(-c4ccc5cn[nH]c5c4)cc3)C[C@H]2C(=O)O)c2oc3ccccc3c2n1 [Compound 39, (28.4R)-4-(2-((4-(1H-indazol-6-yl)phenyl)amino)-2-oxoethyl)-1-(2-methylbenzofuro[3,2-d]pyrimidin-4-yl)pyrrolidine-2-carboxylic acid]	2500 to 10000
	200 to 500	< 50	10000 to 20000		Cc1nc(N2C[C@@H](CC(=O)Nc3ccc(-c4ccc(N)nc4)cc3)C[C@H]2C(=O)O)c2oc3ccccc3c2n1 [Compound 40, (2S,4R)-4-(2-((4-(6-aminopyridin-3-yl)phenyl)amino)-2-oxoethyl)-1-(2-methylbenzofuro[3,2-d]pyrimidin-4-yl)pyrrolidine-2-carboxylic acid]	> 20000
	500 to 1000	100 to 200	> 20000		Cc1nc(N2C[C@@H](CC(=O)Nc3ccc(-c4ccnc(N)c4)cc3)C[C@H]2C(=O)O)c2oc3ccccc3c2n1 [Compound 41, (28.4R)-4-(2-((4-(2-aminopyridin-4-yl)phenyl)amino)-2-oxoethyl)-1-(2-methylbenzofuro[3,2-d]pyrimidin-4-yl)pyrrolidine-2-carboxylic acid]	> 20000
	500 to 1000	50 to 100	> 20000		Cc1nc(N2C[C@@H](CC(=O)Nc3ccc(-c4cccc(N)n4)cc3)C[C@H]2C(=O)O)c2oc3ccccc3c2n1 [Compound 42, (2S,4R)-4-(2-((4-(6-aminopyridin-2-yl)phenyl)amino)-2-oxoethyl)-1-(2-methylbenzofuro[3.2-d]pyrimidin-4-yl)pyrrolidine-2-carboxylic acid]	> 20000
	< 200	< 50	10000 to 20000		Cc1nc(N2C[C@@H](CC(=O)Nc3ccc(-c4cccc(O)c4)cc3)C[C@H]2C(=O)O)c2oc3ccccc3c2n1 [Compound 51, (2S,4R)-4-(2-((3′-hydroxy-[1,1′-biphenyl]-4-yl)amino)-2-oxoethyl)-1-(2-methylbenzofuro[3,2-d]pyrimidin-4-yl)pyrrolidine-2-carboxylic acid]	> 20000
